In patent US20250228239A1, “MOLECULES HAVING PESTICIDAL UTILITY, AND INTERMEDIATES, COMPOSITIONS, AND PROCESSES, RELATED THERETO” (priority 2024, published 2025) one finds pest or weed control, YFM and YFM rating data, which are given here for 16 compounds.

Where two headings read alike, the source gives them in different places.

Holding throughout (type): in vivo
Experiment [1] deals with Beet Armyworm (Spodoptera exigua, LAPHEG). Briefly: Bioassays on Beet Armyworm (BAW), 128-well diet tray assay. The note with it: Spodoptera exigua. In outline: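 Larvae at second instar are exposed on dried, compound-treated diet (50 μg/cm^2, delivered in 90:10 acetone-water) in eight replicate wells. After five to seven days at 25° C., 14:10 light-dark, percent mortality in each well is scored and the eight wells averaged.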

The test system of experiment [2] is Cabbage Looper (Trichoplusia ni, TRIPNI). In words: Bioassays on Cabbage Looper (CL), 128-well diet tray assay. The settings on record: Trichoplusia ni. Put shortly: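 Percent mortality, averaged across eight replicate wells, after second-instar larvae (1–5 per well) fed for five to seven days on diet dosed at 50 μg/cm^2. Compound was applied in acetone-water 90:10 and dried; trays kept vented at 25° C under 14:10 photoperiod.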

In experiment [3] the test system is Yellow Fever Mosquito (Aedes aegypti, AEDSAE). The settings on record: for YFM rating: Table ABC / ABC-DP rating. In outline: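 Larvae ~1 day old, in liver powder/water; compound from 4000 ppm DMSO stock diluted with water/acetone (90:10); 6 reps; lidded, RT, 3 d; mortality scored per well, rated.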
Experiment [4] deals with Green Peach Aphid (Myzus persicae, MYZUPE). In words: Bioassays on Green Peach Aphid (GPA), foliar spray on cabbage seedlings. The note with it: 72 h. Put shortly:
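Percent control (Abbott-corrected versus solvent-sprayed plants) comes from live-aphid counts three days after treatment at about 25° C. Test solution at 200 ppm was sprayed to runoff onto both leaf surfaces of cabbage seedlings infested a day earlier with 20-50 aphids; four replicate pots.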

[5] abbreviates: Table ABC: Biological Results, species BAW, read-out: BAW.
Where [6] appears, read: Table ABC: Biological Results, species CL, read-out: CL.
Setting [7] is: Table ABC: Biological Results, species YFM.
The mark [8] stands for this setting: Table ABC: Biological Results, species GPA, read-out: GPA.
Setting [9] is: Beet Armyworm, rating class, read-out: BAW.
The mark [10] stands for this setting: Cabbage Looper, rating class, read-out: CL.
Setting [11] is: Yellow Fever Mosquito, rating class.
Where [12] appears, read: Green Peach Aphid, rating class, read-out: GPA.
Setting [13] is: Beet Armyworm, Table ABC / ABC-DP rating, read-out: BAW rating.
The mark [14] stands for this setting: Cabbage Looper, Table ABC / ABC-DP rating, read-out: CL rating.
The mark [15] stands for this setting: Green Peach Aphid, Table ABC / ABC-DP rating, read-out: GPA rating.

For the compound `O=C(Nc1ccccc1)c1c(F)ccc(NC(=O)[C@H]2[C@H](c3ccc(F)c(Cl)c3)C2(Cl)Cl)c1F` (relative stereo) [F1108, trans-3-(2,2-Dichloro-3-(3-chloro-4-fluorophenyl)cyclopropane-1-carboxamido)-2,6-difluoro-N-phenylbenzamide], the pest or weed control at 50 µg/cm2 in experiment [1] (setting [5]) and in experiment [2] (setting [6]) was 50 to 100% throughout. In addition, the YFM entry in experiment [3] (setting [7]) is recorded as “A (80–100)”. Also, the pest or weed control at 200 µg/mL in experiment [4] (setting [8]) was in the range of 80 to 100%.
Turning to `Nc1ccc(F)c(NC(=O)c2cc(NC(=O)[C@H]3[C@H](c4ccc(Cl)c(Cl)c4)C3(Cl)Cl)ccc2Cl)c1F` [F1250, N-(3-Amino-2,6-difluorophenyl)-2-chloro-5-((1R,3R)-2,2-dichloro-3-(3,4-dichlorophenyl)cyclopropane-1-carboxamido)benzamide], the pest or weed control at 50 µg/cm2 in experiment [1] (setting [5]) and in experiment [2] (setting [6]) was 50 to 100% each time. The YFM result in experiment [3] (setting [7]) is reported as “A (80–100)”. For the same compound, the pest or weed control at 200 µg/mL in experiment [4] (setting [8]) was in the range of 80 to 100%.
Consider `O=C(Nc1ccc(F)c(NC(=O)C(F)(F)C(F)F)c1F)c1cc(NC(=O)[C@H]2[C@H](c3ccc(F)c(Cl)c3)C2(Cl)Cl)ccc1Cl` [F1703, 2-Chloro-5-((1R,3R)-2,2-dichloro-3-(3-chloro-4-fluorophenyl)cyclopropane-1-carboxamido)-N-(2,4-difluoro-3-(2,2,3,3-tetrafluoropropanamido)phenyl)benzamide], for which the pest or weed control at 50 µg/cm2 in experiment [1] (setting [9]) and in experiment [2] (setting [10]) was 50 to 100% each time. In addition, the YFM result in experiment [3] (setting [11]) is listed as “A (80–100)”. The pest or weed control at 200 µg/mL in experiment [4] (setting [12]) lay in the range of 80 to 100%.
Consider `Nc1c(F)ccc(NC(=O)c2cc(NC(=O)[C@H]3[C@H](c4cccc(C(F)(F)F)c4)C3(Cl)Cl)ccc2Cl)c1F` [F1666, N-(3-Amino-2,4-difluorophenyl)-2-chloro-5-((1R,3R)-2,2-dichloro-3-(3-(trifluoromethyl)phenyl)cyclopropane-1-carboxamido)benzamide], for which the pest or weed control at 50 µg/cm2 in experiment [1] (setting [9]) and in experiment [2] (setting [10]) was 50 to 100% throughout. For the same compound, the YFM result in experiment [3] (setting [11]) is on record as “B (More than 0 – Less than 80)”. Besides, in experiment [4] (setting [12]), the pest or weed control at 200 µg/mL lay in the range of 80 to 100%.
As to `CC(=O)Nc1cc(NC(=O)c2cc(NC(=O)[C@H]3[C@H](c4ccc(Cl)c(Cl)c4)C3(Cl)Cl)ccc2Cl)c(F)cc1F` [F1246, N-(5-Acetamido-2,4-difluorophenyl)-2-Chloro-5-((1R,3R)-2,2-dichloro-3-(3,4-dichlorophenyl)cyclopropane-1-carboxamido)benzamide], the pest or weed control at 50 µg/cm2 in experiment [1] (setting [5]) and in experiment [2] (setting [6]) was 50 to 100% each time. In experiment [3] (setting [7]), the YFM entry is on record as “A (80–100)”. Moreover, in experiment [4] (setting [8]), the pest or weed control at 200 µg/mL lay within 80 to 100%.
Consider `CC(=O)Nc1c(F)ccc(NC(=O)c2cc(NC(=O)[C@H]3[C@H](c4cc(F)cc(C(F)(F)F)c4)C3(Cl)Cl)ccc2Cl)c1F` [F1708, N-(3-Acetamido-2,4-difluorophenyl)-2-chloro-5-((1R,3R)-2,2-dichloro-3-(3-fluoro-5-(trifluoromethyl)phenyl)cyclopropane-1-carboxamido)benzamide], for which the pest or weed control at 50 µg/cm2 in experiment [1] (setting [9]) and in experiment [2] (setting [10]) was 50 to 100% in each case. Besides, the YFM entry in experiment [3] (setting [11]) was “A (80–100)”. The pest or weed control at 200 µg/mL in experiment [4] (setting [12]) lay within 80 to 100%.
In the case of `O=C(NCCF)c1c(F)ccc(NC(=O)[C@H]2[C@H](c3ccc(F)c(Cl)c3)C2(Cl)Cl)c1F` (relative stereo) [F2027, trans-3-(2,2-Dichloro-3-(3-chloro-4-fluorophenyl)cyclopropane-1-carboxamido)-2,6-difluoro-N-(2-fluoroethyl)benzamide], the pest or weed control at 50 µg/cm2 in experiment [1] (setting [13]) and in experiment [2] (setting [14]) was 50 to 100% throughout. For the same compound, the YFM rating entry in experiment [3] (Yellow Fever Mosquito) is “A (80–100)”. For the same compound, in experiment [4] (setting [15]), the pest or weed control at 200 µg/mL lay in the range of 80 to 100%.
`Nc1ccc(F)c(NC(=O)c2cc(NC(=O)[C@H]3[C@H](c4ccc(F)c(Cl)c4)C3(Cl)Cl)ccc2Cl)c1F` [F1247, N-(3-Amino-2,6-difluorophenyl)-2-chloro-5-((1R,3R)-2,2-dichloro-3-(3-chloro-4-fluorophenyl)cyclopropane-1-carboxamido)benzamide]: the pest or weed control at 50 µg/cm2 in experiment [1] (setting [5]) and in experiment [2] (setting [6]) was 50 to 100% throughout. Further, in experiment [3] (setting [7]), the YFM entry is given as “A (80–100)”. For the same compound, the pest or weed control at 200 µg/mL in experiment [4] (setting [8]) fell in the range of 80 to 100%.
For the compound `O=C(Nc1ccc(F)c(NC(=O)C(F)(F)F)c1F)c1cc(NC(=O)[C@H]2[C@H](c3ccc(Cl)c(C(F)(F)F)c3)C2(Cl)Cl)ccc1Cl` [F1656, 2-Chloro-5-((1R,3R)-2,2-dichloro-3-(4-chloro-3-(trifluoromethyl)phenyl)cyclopropane-1-carboxamido)-N-(2,4-difluoro-3-(2,2,2-trifluoroacetamido)phenyl)benzamide], the pest or weed control at 50 µg/cm2 in experiment [1] (setting [9]) and in experiment [2] (setting [10]) was 50 to 100% each time. The YFM result in experiment [3] (setting [11]) is “A (80–100)”. Also, the pest or weed control at 200 µg/mL in experiment [4] (setting [12]) lay within 0 to 80%.
For the compound `CC(=O)Nc1ccc(F)c(NC(=O)c2cc(NC(=O)[C@H]3[C@H](c4cc(Cl)cc(Cl)c4)C3(Cl)Cl)ccc2Cl)c1` (relative stereo) [F1635, trans-N-(5-Acetamido-2-fluorophenyl)-2-chloro-5-(2,2-dichloro-3-(3,5-dichlorophenyl)cyclopropane-1-carboxamido)benzamide], the pest or weed control at 50 µg/cm2 in experiment [1] (setting [9]) and in experiment [2] (setting [10]) was 50 to 100% in each case. Moreover, the YFM result in experiment [3] (setting [11]) is listed as “A (80–100)”. Further, the pest or weed control at 200 µg/mL in experiment [4] (setting [12]) lay in the range of 0 to 80%.
`O=C(Nc1ccc(F)c(NC(=O)C(F)(F)C(F)(F)F)c1F)c1cc(NC(=O)[C@H]2[C@H](c3ccc(Cl)c(Cl)c3)C2(Cl)Cl)ccc1Cl` [F1251, 2-Chloro-5-((1R,3R)-2,2-dichloro-3-(3,4-dichlorophenyl)cyclopropane-1-carboxamido)-N-(2,4-difluoro-3-(2,2,3,3,3-pentafluoropropanamido)phenyl)benzamide]: the pest or weed control at 50 µg/cm2 in experiment [1] (setting [5]) and in experiment [2] (setting [6]) was 50 to 100% in each case. In addition, the YFM entry in experiment [3] (setting [7]) was “A (80–100)”. Further, in experiment [4] (setting [8]), the pest or weed control at 200 µg/mL was in the range of 0 to 80%.
As for `O=C(CNC(=O)c1cc(NC(=O)[C@H]2[C@H](c3cc(Cl)cc(Cl)c3)C2(Cl)Cl)ccc1Cl)NCCC(F)(F)F` (relative stereo) [F2081, trans-2-Chloro-5-(2,2-dichloro-3-(3,5-dichlorophenyl)cyclopropane-1-carboxamido)-N-(2-oxo-2-(3,3,3-trifluoropropylamino)ethyl)benzamide], the pest or weed control at 50 µg/cm2 in experiment [1] (setting [13]) and in experiment [2] (setting [14]) was 50 to 100% throughout. Further, in experiment [3] (Yellow Fever Mosquito), the YFM rating entry is recorded as “A (80–100)”. The pest or weed control at 200 µg/mL in experiment [4] (setting [15]) fell in the range of 80 to 100%.
Turning to `O=C(Nc1ccc(F)c(NC(=O)C(F)(F)C(F)(F)F)c1F)c1cc(NC(=O)[C@H]2[C@H](c3ccc(F)c(Cl)c3)C2(Cl)Cl)ccc1Cl` [F1696, 2-Chloro-5-((1R,3R)-2,2-dichloro-3-(3-chloro-4-fluorophenyl)cyclopropane-1-carboxamido)-N-(2,4-difluoro-3-(2,2,3,3,3-pentafluoropropanamido)phenyl)benzamide], the pest or weed control at 50 µg/cm2 in experiment [1] (setting [9]) and in experiment [2] (setting [10]) was 50 to 100% in each case. The YFM entry in experiment [3] (setting [11]) was “A (80–100)”. In addition, the pest or weed control at 200 µg/mL in experiment [4] (setting [12]) is 80 to 100%.
Regarding `O=C(Nc1ccc(F)c(NC(=O)C(F)(F)Cl)c1F)c1cc(NC(=O)[C@H]2[C@H](c3ccc(Cl)c(Cl)c3)C2(Cl)Cl)ccc1Cl` [F1248, 2-Chloro-N-(3-(2-chloro-2,2-difluoroacetamido)-2,4-difluorophenyl)-5-((1R,3R)-2,2-dichloro-3-(3,4-dichlorophenyl)cyclopropane-1-carboxamido)benzamide], the pest or weed control at 50 µg/cm2 in experiment [1] (setting [5]) and in experiment [2] (setting [6]) was 50 to 100% in each case. In addition, the YFM result in experiment [3] (setting [7]) was “A (80–100)”. For the same compound, the pest or weed control at 200 µg/mL in experiment [4] (setting [8]) fell in the range of 80 to 100%.
For the compound `CCCCC(=O)Nc1c(F)ccc(NC(=O)c2cc(NC(=O)[C@H]3[C@H](c4ccc(Cl)c(Cl)c4)C3(Cl)Cl)ccc2Cl)c1F` [F1474, 2-Chloro-5-((1R,3R)-2,2-dichloro-3-(3,4-dichlorophenyl)cyclopropane-1-carboxamido)-N-(2,4-difluoro-3-pentanamidophenyl)benzamide], the pest or weed control at 50 µg/cm2 in experiment [1] (setting [9]) and in experiment [2] (setting [10]) was 50 to 100% throughout. Moreover, the YFM result in experiment [3] (setting [11]) is “A (80–100)”. The pest or weed control at 200 µg/mL in experiment [4] (setting [12]) was in the range of 0 to 80%.
On to `C#CCN(C(=O)c1cc(NC(=O)[C@H]2[C@H](c3cc(Cl)cc(Cl)c3)C2(Cl)Cl)ccc1Cl)c1ccc(F)cc1C#N` (relative stereo) [F1072, trans-2-Chloro-N-(2-cyano-4-fluorophenyl)-5-(2,2-dichloro-3-(3,5-dichlorophenyl)cyclopropane-1-carboxamido)-N-(prop-2-yn-1-yl)benzamide], for which the pest or weed control at 50 µg/cm2 in experiment [1] (setting [5]) and in experiment [2] (setting [6]) was 50 to 100% throughout. Also, in experiment [3] (setting [7]), the YFM entry is listed as “A (80–100)”. Besides, the pest or weed control at 200 µg/mL in experiment [4] (setting [8]) lay within 0 to 80%.
